Drawing on patent US9512175B2, “Macrocyclic inhibitors of flaviviridae viruses” (Gilead Sciences, Inc., priority 2012, dated 2016), this text covers IC50 and inhibition for 29 compounds.

Each structure is given as a SMILES string. Where two headings read alike, the source gives them in different places.

In assay [1] the target is cyclophilin A (Homo sapiens, UniProt P62937). Nature of the assay: Cyclophilin A TR-FRET competitive binding assay. The settings on record: IC50 ranges, competition with CsA-Cy5 for His-tagged CypA, two-hour incubation. The protocol:
Cyclophilin A TR-FRET Competitive Binding Assay
Inhibitor potency was measured using a competitive binding assay with a time-resolved fluorescence resonance energy transfer (TR-FRET) readout. […] An IC50 value was calculated using a four-parameter logistic fit.
(In general: TR-FRET usually uses a lanthanide donor and a delayed reading to cut background.)

For assay [2], the system named is HCV replicon (Replicon 1a). Nature of the assay: anti-HCV activity in Huh-7 cell line harboring a HCV replicon (Replicon 1a). It counts as cell-based. The settings on record: Hepatitis C virus, Huh-7, 72 h.
Where [3] appears, read: read-out: Replicon 1a % inhibition at 1 μM, 1 μM, human hepatoma Huh-7 HCV replicon cells, 3 days, luciferase readout.
Setting [4] is: read-out: Replicon 1a % inhibition at 1 μM.

Chain of cyclophilin A (P62937 whole entry, species assumed): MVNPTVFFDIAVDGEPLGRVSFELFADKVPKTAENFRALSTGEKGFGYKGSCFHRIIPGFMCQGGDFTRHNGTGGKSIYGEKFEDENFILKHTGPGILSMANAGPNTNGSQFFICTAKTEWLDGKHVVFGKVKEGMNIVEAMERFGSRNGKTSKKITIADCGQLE

In the case of `CC(=O)O[C@@H](C)[C@H]1/C=C/c2ccc3ccc(nc3c2)[C@@H](C)OC(=O)[C@@H]2CCCN(N2)C(=O)[C@H](C)NC(=O)[C@H](C(C)C)NC1=O` [Compound 171], the IC50 in assay [1] (read-out: TR-FRET) is below 100 nM. The inhibition at 1 µM in assay [2] (setting [3]) came out at 99%.
The like results for `COC[C@@H]1NC(=O)[C@H](C(C)C)NC(=O)C(C)(C)/C=C/c2ccc3ccc(nc3c2)[C@@H](C)OC(=O)[C@@H]2CCCN(N2)C1=O` (single isomer, unassigned) [Compound 117] were, in that order, below 100 nM and 100%.
The like results for `CC(C)[C@@H]1NC(=O)C(C)(C)/C=C/c2ccc3ccc(nc3c2)[C@@H](C)OC(=O)[C@@H]2CCCN(N2)C(=O)[C@H](CO)NC1=O` [Compound 82] were, in that order, below 100 nM and 99%.
For the compound `COCCC1(C)/C=C/c2ccc3ccc(nc3c2)[C@@H](C)OC(=O)[C@@H]2CCCN(N2)C(=O)[C@H](C)NC(=O)[C@H](C(C)C)NC1=O` (single isomer, unassigned) [Compound 103], the IC50 in assay [1] (read-out: TR-FRET) is below 100 nM. Also, in assay [2] (setting [3]), the inhibition at 1 µM was found to be 100%.
For `CC(C)[C@@H]1NC(=O)C(C)(C)/C=C/c2ccc3ccc(nc3c2)[C@@H](C(F)(F)F)NC(=O)[C@@H]2CCCN(N2)C(=O)[C@H](C)NC1=O` [Compound 13], the IC50 in assay [1] (read-out: TR-FRET) was below 100 nM. Moreover, in assay [2] (setting [4]), the inhibition at 1 µM amounted to 87%.
In turn, `CC(C)[C@@H]1NC(=O)[C@](C)(COCC[Si](C)(C)C)/C=C/c2ccc3ccc(nc3c2)[C@@H](C)OC(=O)[C@@H]2CCCN(N2)C(=O)[C@H](C)NC1=O` [Compound 79] registered an IC50 in assay [1] (TR-FRET) below 100 nM. Moreover, the inhibition at 1 µM in assay [2] (setting [4]) came to 96%.
Take `CC(C)[C@@H]1NC(=O)[C@]2(/C=C/c3ccc4ccc(nc4c3)[C@@H](C)OC(=O)[C@@H]3CCCN(N3)C(=O)[C@H](C)NC1=O)CC[C@](C)(O)CC2` [Compound 174]: the IC50 in assay [1] (read-out: TR-FRET) was below 100 nM. The inhibition at 1 µM in assay [2] (setting [3]) amounted to 99%.
In the same order, the values of `CC(C)[C@@H]1NC(=O)[C@]2(/C=C/c3ccc4ccc(nc4c3)[C@@H](C)OC(=O)[C@@H]3CCCN(N3)C(=O)[C@H](C)NC1=O)CC[C@H](O)CC2` [Compound 158] are below 100 nM and 100%.
The like results for `CO[C@@H]1CCc2cc3cc(ccc3cn2)[C@@H](C)NC(=O)[C@@H]2CCCN(N2)C(=O)[C@H](C)NC(=O)[C@H](C(C)C)NC(=O)[C@@H]1C` [Compound 6] were, in that order, below 100 nM and 86%.
For the compound `C[C@@H]1NC(=O)[C@H](CCn2ccnn2)NC(=O)C(C)(C)/C=C/c2cc3cc(ccc3cn2)[C@@H](C)OC(=O)[C@@H]2CCCN(N2)C1=O` [Compound 50], the IC50 in assay [1] (read-out: TR-FRET) is 101 to 1000 nM. Besides, the inhibition at 1 µM in assay [2] (setting [4]) was found to be 12%.
On to `CC(C)[C@@H]1NC(=O)C/C=C/c2ccc3nnc(cc3c2)[C@@H](C)OC(=O)[C@@H]2CCCN(N2)C(=O)[C@H](C)NC1=O` [Compound 32], for which the IC50 in assay [1] (read-out: TR-FRET) was below 100 nM. In addition, in assay [2] (setting [3]), the inhibition at 1 µM came to 71%.
`CO[C@@H]1CC/C=C/c2ccc3c(c2)[C@@H](CC3)N(C)C(=O)[C@@H]2CCCN(N2)C(=O)[C@H](C)NC(=O)[C@H](C(C)C)NC(=O)[C@@H]1C` [Compound 25] displayed an IC50 in assay [1] (TR-FRET) of 101 to 1000 nM. In addition, the inhibition at 1 µM in assay [2] (setting [4]) is 71%.
In the case of `CC(C)[C@@H]1NC(=O)C(C)(C)COc2cc3cc(ccc3cn2)[C@@H](C)OC(=O)[C@@H]2CCCN(N2)C(=O)[C@H](C)NC1=O` (single isomer, unassigned) [Compound 68], in assay [1] (read-out: TR-FRET), the IC50 was below 100 nM. Besides, in assay [2] (setting [3]), the inhibition at 1 µM stood at 91%.
In the same order, the values of `CC[C@@H]1/C=C/c2cc3cc(ccc3cn2)[C@@H](C)OC(=O)[C@@H]2CCCN(N2)C(=O)[C@H](C)NC(=O)[C@H](C(C)C)NC1=O` [Compound 19] are below 100 nM and 97%.
The like results for `CC(C)[C@@H]1NC(=O)C(C)(C)COc2cc3cc(ccc3cn2)[C@@H](C)OC(=O)[C@H]2CCCN(N2)C(=O)[C@H](C)NC1=O` [Compound 69] were, in that order, 1000 to 10000 nM and 19%.
The like results for `CC(C)[C@@H]1NC(=O)C(C)(C)/C=C/c2ccc3ccc(nc3c2)C(C)N(C)C(=O)[C@@H]2CCCN(N2)C(=O)[C@H](C)NC1=O` (stereo partly shown) [Compound 115] were, in that order, below 100 nM and 92%.
In assay [1] (TR-FRET), `CC(C)[C@@H]1NC(=O)[C@@](C)(CO)/C=C/c2ccc3ccc(nc3c2)[C@@H](C)OC(=O)[C@@H]2CCCN(N2)C(=O)[C@H](C)NC1=O` [Compound 78] had an IC50 below 100 nM. In assay [2] (setting [4]), the inhibition at 1 µM came to 99%.
With `CC(C)[C@@H]1NC(=O)C(C)(C)/C=C/c2ccc3ccc(nc3c2)[C@@H](C)OC(=O)[C@@H]2CCCN(N2)C(=O)[C@H](COC(F)F)NC1=O` [Compound 106], in assay [1] (read-out: TR-FRET), the IC50 is below 100 nM. Further, in assay [2] (setting [3]), the inhibition at 1 µM was found to be 99%.
The like results for `CC(C)[C@@H]1NC(=O)C(C)(C)/C=C/c2ccc3ccc(nc3c2)[C@@H](C)OC(=O)[C@@H]2CCCN(N2)C(=O)[C@H](CC(=O)N(C)C)NC1=O` [Compound 97] were, in that order, below 100 nM and 98%.
The like results for `CC(C)[C@@H]1NC(=O)C(C)(C)/C=C/c2ccc3cnc(nc3c2)[C@@H](C)OC(=O)[C@@H]2CCCN(N2)C(=O)[C@H](C)NC1=O` [Compound 96] were, in that order, below 100 nM and 100%.
The like results for `CC(C)[C@@H]1NC(=O)COc2ccc(cc2)-c2cccc(c2)[C@@H](C)OC(=O)[C@@H]2CCCN(N2)C(=O)[C@H](C)NC1=O` [Compound 38] were, in that order, below 100 nM and 98%.
Regarding `CC(C)[C@@H]1NC(=O)CCCCCCc2cc3cc(ccc3cn2)[C@@H](C)OC(=O)[C@@H]2CCCN(N2)C(=O)[C@H](C)NC1=O` [Compound 64], the IC50 in assay [1] (read-out: TR-FRET) is 101 to 1000 nM. Also, the inhibition at 1 µM in assay [2] (setting [3]) was found to be 35%.
In the same order, the values of `CC(C)[C@@H]1NC(=O)CCc2ccc(nc2)-c2cccc(c2)[C@@H](C)OC(=O)[C@@H]2CCCN(N2)C(=O)[C@H](C)NC1=O` [Compound 45] are below 100 nM and 80%.
In the same order, the values of `CC(C)[C@H](NC(=O)[C@H](/C=C/c1ccc2ccc([C@@H](C)O)nc2c1)[C@H](C)O)C(=O)N[C@@H](C)C(=O)N1CCC[C@@H](C(=O)O)N1` [Compound 166] are 1000 to 10000 nM and 0%.
`CC(C)[C@@H]1NC(=O)C(C)(C(C)O)/C=C/c2ccc3ccc(nc3c2)[C@@H](C)OC(=O)[C@@H]2CCCN(N2)C(=O)[C@H](C)NC1=O` (stereo partly shown) [Compound 89]: the IC50 in assay [1] (read-out: TR-FRET) was below 100 nM. Further, the inhibition at 1 µM in assay [2] (setting [3]) came to 99%.
Regarding `COC[C@@]1(C)/C=C/c2ccc3ccc(nc3c2)[C@@H](C)OC(=O)[C@@H]2CCCN(N2)C(=O)[C@H](C)NC(=O)[C@H](C(C)C)NC1=O` [Compound 107], the IC50 in assay [1] (read-out: TR-FRET) was below 100 nM. For the same compound, the inhibition at 1 µM in assay [2] (setting [3]) was 100%.
As for `CC(=O)N1CCC2(/C=C/c3ccc4ccc(nc4c3)[C@@H](C)OC(=O)[C@@H]3CCCN(N3)C(=O)[C@H](C)NC(=O)[C@H](C(C)C)NC2=O)CC1` [Compound 135], the IC50 in assay [1] (read-out: TR-FRET) is below 100 nM. In addition, the inhibition at 1 µM in assay [2] (setting [3]) came out at 94%.
In the same order, the values of `CC(C)[C@@H]1NC(=O)C(C)(C)/C=C/c2ccc3ccc(nc3c2)[C@@H](C)NC(=O)[C@@H]2CCCN(N2)C(=O)[C@H](C)NC1=O` [Compound 111] are below 100 nM and 87%.
The like results for `CC(C)[C@@H]1NC(=O)C2(/C=C/c3ccc4ccc(nc4c3)[C@@H](C)OC(=O)[C@@H]3CCCN(N3)C(=O)[C@H](C)NC1=O)CCNCC2` [Compound 127] were, in that order, below 100 nM and 2%.

One may read the inhibition as the relative decrease from the control value, in per cent.
